Test: refractive index (other wavelength) (dimensionless); xn = mol fraction of the nth substance listed
Conditions: 94 kPa, Liquid, Wavelength=632.8 nm, minimum deviation method

CCCCCCCC[n+]1ccn(C)c1.F[P-](F)(F)(F)(F)F [1-octyl-3-methylimidazolium hexafluorophosphate] + CC(C)O
Conditions | refractive index
298.19 K, x1 = 1 | 1.4215
300.2 K, x1 = 1 | 1.421
302.19 K, x1 = 1 | 1.4204
304.2 K, x1 = 1 | 1.4199
306.22 K, x1 = 1 | 1.4193
307.22 K, x1 = 0.5 | 1.4091
307.22 K, x1 = 0.8 | 1.4159
307.28 K, x1 = 0.901 | 1.4177
307.29 K, x1 = 0.601 | 1.4119
307.3 K, x1 = 0.4 | 1.4056
307.3 K, x1 = 0.699 | 1.4141
307.41 K, x1 = 0.3 | 1.4009
308.19 K, x1 = 0.699 | 1.4138
308.21 K, x1 = 0.5 | 1.4088
308.21 K, x1 = 0.601 | 1.4116
308.23 K, x1 = 0.901 | 1.4174
308.24 K, x1 = 1 | 1.4188
308.25 K, x1 = 0.8 | 1.4156
308.29 K, x1 = 0.4 | 1.4053
308.4 K, x1 = 0.3 | 1.4006
309.22 K, x1 = 0.5 | 1.4085
309.24 K, x1 = 0.601 | 1.4113
309.24 K, x1 = 0.8 | 1.4154
309.25 K, x1 = 0.901 | 1.4171
309.27 K, x1 = 0.699 | 1.4135
309.35 K, x1 = 0.4 | 1.405
309.39 K, x1 = 0.3 | 1.4003
309.47 K, x1 = 0.2 | 1.3938
310.24 K, x1 = 0.601 | 1.411
310.25 K, x1 = 0.5 | 1.4082
310.25 K, x1 = 0.8 | 1.4151
310.25 K, x1 = 1 | 1.4183
310.31 K, x1 = 0.699 | 1.4132
310.34 K, x1 = 0.901 | 1.4168
310.36 K, x1 = 0.4 | 1.4047
310.42 K, x1 = 0.3 | 1.3999
310.45 K, x1 = 0.2 | 1.3934
310.49 K, x1 = 0.1 | 1.3838
311.23 K, x1 = 0.601 | 1.4107
311.24 K, x1 = 0.5 | 1.4079
311.25 K, x1 = 0.699 | 1.413
311.25 K, x1 = 0.901 | 1.4166
311.26 K, x1 = 0.8 | 1.4148
311.36 K, x1 = 0.4 | 1.4044
311.46 K, x1 = 0.3 | 1.3996
311.48 K, x1 = 0.2 | 1.3931
311.5 K, x1 = 0.1 | 1.3834
312.22 K, x1 = 0.8 | 1.4146
312.24 K, x1 = 0.601 | 1.4104
312.24 K, x1 = 1 | 1.4178
312.25 K, x1 = 0.5 | 1.4076
312.26 K, x1 = 0.699 | 1.4127
312.35 K, x1 = 0.901 | 1.4163
312.37 K, x1 = 0.4 | 1.4041
312.4 K, x1 = 0.3 | 1.3993
312.47 K, x1 = 0.2 | 1.3927
312.49 K, x1 = 0.1 | 1.383
313.21 K, x1 = 0.601 | 1.4101
313.25 K, x1 = 0.8 | 1.4143
313.26 K, x1 = 0.5 | 1.4073
313.26 K, x1 = 0.901 | 1.416
313.35 K, x1 = 0.4 | 1.4038
313.37 K, x1 = 0.699 | 1.4124
313.43 K, x1 = 0.3 | 1.399
313.49 K, x1 = 0.2 | 1.3924
313.52 K, x1 = 0.1 | 1.3826
314.23 K, x1 = 0.601 | 1.4098
314.23 K, x1 = 0.699 | 1.4121
314.27 K, x1 = 0.5 | 1.407
314.29 K, x1 = 0.8 | 1.414
314.29 K, x1 = 0.901 | 1.4157
314.39 K, x1 = 0.4 | 1.4035
314.46 K, x1 = 0.3 | 1.3986
314.48 K, x1 = 0.2 | 1.392
314.54 K, x1 = 0.1 | 1.3822
315.58 K, x1 = 0.1 | 1.3818
315.58 K, x1 = 0.2 | 1.3916
